# In patent publication US20260137697A1, “THIAZOLO[5,4-D]PYRIMIDINE COMPOUNDS, COMPOSITIONS COMPRISING THEM AND USES THEREOF” (University de Montreal, priority 2022, published 2026):
# How the values were obtained:
# pERK, HCT116 cells = experiment: Phospho-ERK inhibition, AlphaLISA p-ERK 1/2, HCT-116; format: cell-based, human; conditions: Table 3; for IC50: HCT116 cells (KRAS G13D), 1 h treatment; for HCT116 pERK (Ymin %): lowest % inhibition value of the pERK IC50 curve, above −20% = no paradoxical induction
# Method: All cancer cell lines (A375, A101D, A2058, RKO, HT29 SK-MEL 30, IPC298, HepG2, HCT-116, Lovo, SW620, SW480, NCI-H358, NCI-H2122, Calu-6, NCIH2087, NCIH1755, NCIH1666 and Mewo) were obtained from ATCC and cultured in RPM1-1640 medium (Gibco) supplemented with 5% heat inactivated fetal bovine serum (FBS, Wisent) at 37° C. under 5% CO2. Cells were maintained in T175 flasks (Greiner). They were passaged by removing the culture medium, washing once in 10 mL of room temperature Phosphate Buffered Saline (PBS; Wisent) and incubating at 37° C. with 2 mL of 0.05% Trypsin (Thermo-Fisher). Trypsin was then inactivated by adding complete growth medium and the cells were then replated in a T175 culture dish at the appropriate dilution. All cell lines were routinely tested for mycoplasma contamination. Tissue type and mutational status of each cell line can be found in Table B.
# (c) Measurement of Phospho-ERK Inhibition in Cultivated Human Cancer Cell Lines by the AlphaLISA® SureFire® Ultra™ p-ERK 1/2 (Thr2O2/Tyr204)
# AlphaLISA® SureFire® Ultra™ p-ERK 1/2 (Thr202/Tyr204) analysis was conducted on cells plated in 100 μL of complete RPMI-1640 growth medium in 96-well flat-bottomed transparent dishes (Costar) at a density indicated in Table C. Cells were maintained overnight at 37° C. under 5% CO2 before treatment with compounds' dilution series for one hour. The cell density in cells/cm^2 corresponds to cell number divided by the area of one well of a 96-well plate (0.143 cm^2).
# In a dilution series 100 μL/well of test substance dilution prepared in complete RPMI-1640 growth media was added to the cells. The dilution series is selected so that ten concentrations cover a range from 10 μM to 0.33 nM. If necessary, the initial concentration of 10 μM is increased to 100 μM or lowered to 1 μM (as in the case of A375 and H1666 cells, which are generally more sensitive to the compounds) and further dilution is carried out accordingly. The final concentration of DMSO in the assay is set at 0.5%.
# After treatment, media was removed, and cells were lysed in 50 μL of 1× AlphaScreen Ultra Lysis Buffer (Perkin Elmer). The AlphaLISA® SureFire® Ultra™ p-ERK 1/2 (Thr202/Tyr204) (PerkinElmer) reactions were performed with 5 μL of cell lysate according to the manufacturer's specifications in 384-well proxyplates (Perkin Elmer) followed by overnight incubation of the reactions at room temperature in a humidified chamber. After completion of the reactions, the signals were recorded on an EnVision plate reader (Perkin Elmer) using built in AlphaLISA® settings.
# The effect of each compound dilution on the pERK signal was expressed in % inhibition and calculated as follows. An internal 100% inhibition control (1 μM trametinib, cat. No. HY-10999; MedChem Express; CAS No. 871700-17-3) was included in each plate and used as a measure of pERK background. First, the value obtained for trametinib was subtracted from each data point. The average of DMSO (vehicle) controls (set as 0% inhibition) was established and used to calculate % inhibition:
# The ability of each compound to inhibit pERK signal was expressed as an IC50 value obtained by plotting the inhibition values for each data point of a dilution series and fitting the obtained curves using a log(agonist) versus response—variable slope (four parameters) function using GraphPadPrism (V7.0) or Dotmatics Screening Ultra platform.
# When present, paradoxical pERK induction is inferred from the negative % inhibition values observed in the pERK IC50 curves of a compound.
# CRAF = target: T1, CRAF (Homo sapiens, UniProt P04049); experiment: CRAF kinase activity assay (ADP-Glo); format: biochemical; conditions: Table 3; 10 μM ATP, kinase-dead MEK1 substrate
# T1 construct: fused on or other part: GST tag (N-terminal according to the vendor's product)
# T1 sequence (P04049 whole entry Y340E/Y341E, form open, the tested form may be a part): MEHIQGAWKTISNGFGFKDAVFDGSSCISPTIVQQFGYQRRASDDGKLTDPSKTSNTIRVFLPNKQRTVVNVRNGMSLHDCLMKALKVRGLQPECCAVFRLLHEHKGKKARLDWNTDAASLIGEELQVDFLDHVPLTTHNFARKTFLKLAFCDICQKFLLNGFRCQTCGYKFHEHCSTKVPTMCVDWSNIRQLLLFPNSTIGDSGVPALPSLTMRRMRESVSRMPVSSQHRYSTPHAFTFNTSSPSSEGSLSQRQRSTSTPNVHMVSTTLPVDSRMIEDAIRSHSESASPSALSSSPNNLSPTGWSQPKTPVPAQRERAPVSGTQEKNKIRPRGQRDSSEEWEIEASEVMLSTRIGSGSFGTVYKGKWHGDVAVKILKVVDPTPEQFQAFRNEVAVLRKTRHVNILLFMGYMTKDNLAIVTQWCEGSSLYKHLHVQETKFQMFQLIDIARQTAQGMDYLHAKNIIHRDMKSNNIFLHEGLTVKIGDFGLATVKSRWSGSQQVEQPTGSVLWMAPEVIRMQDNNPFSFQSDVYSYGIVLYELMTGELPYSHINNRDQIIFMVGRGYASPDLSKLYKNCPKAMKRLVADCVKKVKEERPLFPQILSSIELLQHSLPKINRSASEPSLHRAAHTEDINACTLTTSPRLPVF
# Method: (§1) Compound preparation: solid samples of each substance in 1dram vials were suspended in DMSO (Fisher Scientific) at a stock concentration of 20 mM. Stocks were kept at −20° C. and protected from light. If solubility of the compound at 20 mM appeared to be an issue, the initial concentration of the DMSO stock was changed to 10 mM or 5 mM.
# (§2) In vitro enzymatic reactions were used for evaluating compounds intrinsic activity against BRAF, CRAF and ARAF. For BRAF and CRAF, 0.375 nM of purified GST-tagged kinases (cat. No. B4062-10UG and cat. No. R1656-10UG respectively from Millipore Sigma) were incubated with 75 nM of kinase-dead MEK1 substrate (cat. No. 40075; BPS Bioscience) in the presence of 10 μM of Ultrapure ATP (cat. No. V9102; Promega; part V915A) with and without the test compound in a buffer containing 50 mM HEPES pH 7.5, 10 mM MgCl2, 1 mM EDTA, 0.01% Brij-35 and 2 mM DTT. Separate reactions were performed with the MEK1 substrate and ATP as a blank control. ARAF kinase reactions were rigorously the same with the exception that kinase concentration was raised to 3.75 nM (cat. No. 1768-0000-1; Reaction Biology).
# (§3) For compound treatment, 5 μL/well of test substance solution are placed in a 384-well proxyplate (Perkin Elmer) and mixed with 2× concentrated kinase reactions. The dilution series is selected so that nine concentrations cover a range from 100 nM to 0.01 nM. […] The final concentration of DMSO in the assay is set at 0.05%.
# (§4) BRAF and CRAF kinase reactions were carried out for a total of 2 hours at 30° C. and then stopped by 1/2 dilution in ADP-Glo Reagent (cat. No. V9102; Promega; part V912C). Reactions were then incubated for 1 h at room temperature before addition of one volume of Kinase Detection Reagent (cat. No. V9102; Promega; part V917A). Plates were then equilibrated at room temperature for 30 minutes before detection of luminescence on a Synergy Neo2 plate reader (Biotek). The effect of each compound dilution on BRAF and CRAF kinase activity was expressed as % inhibition and calculated as follows. First, the internal 100% inhibition control (average of luminescence in kinase reactions comprising kinase dead MEK1 substrate alone) was subtracted from each data point. The average of DMSO (vehicle) controls (set as 0% inhibition) was established and used to calculate % inhibition:
# (§5) IC50 values were obtained by plotting the kinase inhibition values and fitting the dose-activity curves using a log(agonist) versus response—variable slope (four parameters) function using either GraphPadPrism (V7.0) or Dotmatics Screening Ultra platform. Standards included in the ARAF kinase assay were Belvarafenib (MedChem Express cat. No. HY-109080; CAS No. 1446113-23-0), LXH254 (MedChem Express cat. No. HY-112089; CAS No. 1800398-38-2) and BGB283 (cat. No. HY-18957; CAS No. 1446090-79-4).
# BRAF = target: T2, BRAF (Homo sapiens, UniProt P15056); experiment: BRAF kinase activity assay (ADP-Glo); format: biochemical; conditions: Table 3; 10 μM ATP, kinase-dead MEK1 substrate
# T2 construct: GST; purchased Millipore Sigma B4062-10UG
# T2 sequence (P15056 whole entry): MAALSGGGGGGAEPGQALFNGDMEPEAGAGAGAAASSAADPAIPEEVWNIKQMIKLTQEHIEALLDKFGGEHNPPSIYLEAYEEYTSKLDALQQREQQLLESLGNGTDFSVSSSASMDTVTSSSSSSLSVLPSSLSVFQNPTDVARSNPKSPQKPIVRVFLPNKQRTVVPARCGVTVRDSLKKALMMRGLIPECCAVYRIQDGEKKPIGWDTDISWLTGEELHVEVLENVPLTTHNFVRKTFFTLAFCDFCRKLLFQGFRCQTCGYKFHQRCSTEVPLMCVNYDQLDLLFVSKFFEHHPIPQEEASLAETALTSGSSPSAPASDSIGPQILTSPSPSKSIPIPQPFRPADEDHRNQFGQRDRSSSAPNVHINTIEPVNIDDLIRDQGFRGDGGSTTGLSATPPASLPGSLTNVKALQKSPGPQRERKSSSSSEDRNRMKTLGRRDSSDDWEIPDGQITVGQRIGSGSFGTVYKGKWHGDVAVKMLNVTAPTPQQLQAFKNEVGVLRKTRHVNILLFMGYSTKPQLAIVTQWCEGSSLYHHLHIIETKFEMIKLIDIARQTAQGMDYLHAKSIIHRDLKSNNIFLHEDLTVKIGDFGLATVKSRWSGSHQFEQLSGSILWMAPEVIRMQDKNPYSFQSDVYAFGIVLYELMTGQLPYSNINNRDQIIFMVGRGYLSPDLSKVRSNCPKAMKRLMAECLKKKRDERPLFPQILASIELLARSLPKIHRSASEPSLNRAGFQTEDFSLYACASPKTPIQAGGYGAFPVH
# Method: as §1, §2, §3, §4, §5
SMILES,"IC50 (pERK, HCT116 cells; Homo sapiens, HCT-116) [nM]",IC50 (CRAF) [nM],IC50 (BRAF) [nM],"IC50 (pERK, HCT116 cells) [nM]","HCT116 pERK (Ymin %) (pERK, HCT116 cells) [%]"
CC(C)C(=O)c1cn(-c2nc3c(Nc4c(F)ccc(NS(=O)(=O)c5cccc(Cl)c5Cl)c4F)ncnc3s2)c2ccccc12 [Example 92],1000 to 10000,> 50,> 10,,
O=S(=O)(Nc1ccc(F)c(Nc2ncnc3sc(-n4cnc(CCO)c4)nc23)c1F)c1cccc(Cl)c1Cl [Example 121],,10 to 50,1 to 10,500 to 1000,−11
CCOc1cccc2c1ccn2-c1nc2c(Nc3c(F)ccc(NS(=O)(=O)c4cccc(Cl)c4Cl)c3F)ncnc2s1 [Example 108],,10 to 50,1 to 10,< 500,−10
CN1CC2CCC(C1)N2S(=O)(=O)c1cn(-c2nc3c(Nc4c(F)ccc(NS(=O)(=O)c5cccc(Cl)c5Cl)c4F)ncnc3s2)c2ccccc12 [Example 68],,10 to 50,1 to 10,< 500,−6
COCCN(C)S(=O)(=O)c1cn(-c2nc3c(Nc4c(F)ccc(NS(=O)(=O)c5cccc(Cl)c5Cl)c4F)ncnc3s2)c2ccccc12 [Example 48],,10 to 50,1 to 10,500 to 1000,0
"O=S(=O)(Nc1ccc(F)c(Nc2ncnc3sc(-n4cnc5ccccc54)nc23)c1F)c1cccc(Cl)c1Cl [Example 4, N-[3-[[2-(benzimidazol-1-yl)thiazolo[5,4-d]pyrimidin-7-yl]amino]-2,4-difluoro-phenyl]-2,3-dichloro-benzenesulfonamide]",500 to 1000,< 10,1 to 10,,
Cc1c(F)cccc1S(=O)(=O)Nc1ccc(F)c(Nc2ncnc3sc(-n4cnc5c(C(C)(C)C#N)cccc54)nc23)c1F [Example 112],,< 10,1 to 10,< 500,7
COc1ccc(S(=O)(=O)Nc2ccc(F)c(Nc3ncnc4sc(-n5cnc6c(N)cccc65)nc34)c2F)c(C)c1F [Example 15],,10 to 50,1 to 10,< 500,−3
CN(Cc1cccnc1)C(=O)c1cn(-c2nc3c(Nc4c(F)ccc(NS(=O)(=O)c5cccc(Cl)c5Cl)c4F)ncnc3s2)c2ccccc12 [Example 46],,< 10,1 to 10,< 500,1
O=C(c1cn(-c2nc3c(Nc4c(F)ccc(NS(=O)(=O)c5cccc(Cl)c5Cl)c4F)ncnc3s2)c2ccccc12)N1CCCC(O)C1 (centres unmarked) [Example 55],,< 10,< 1,500 to 1000,−3
Cc1c(F)cccc1S(=O)(=O)Nc1ccc(F)c(Nc2ncnc3sc(-n4nnc5ccccc54)nc23)c1F [Example 22],,> 50,> 10,1000 to 10000,−8
CC1(O)CCCN(c2cccc3c2ncn3-c2nc3c(Nc4c(F)ccc(NS(=O)(=O)c5cccc(Cl)c5Cl)c4F)ncnc3s2)CC1 (centres unmarked) [Example 150],,10 to 50,> 10,1000 to 10000,−5
CC1COCCN1S(=O)(=O)c1cn(-c2nc3c(Nc4c(F)ccc(NS(=O)(=O)c5cccc(Cl)c5Cl)c4F)ncnc3s2)c2ccccc12 (centres unmarked) [Example 69],,10 to 50,> 10,500 to 1000,−7
O=S(=O)(Nc1ccc(F)c(Nc2ncnc3sc(-n4cnc5c(N6CCN(CCO)CC6)cccc54)nc23)c1F)c1cccc(Cl)c1Cl [Example 152],,< 10,< 1,< 500,0
CC1(O)CCN(c2cccc3c2ncn3-c2nc3c(Nc4c(F)ccc(NS(=O)(=O)c5cccc(Cl)c5Cl)c4F)ncnc3s2)CC1 [Example 113],< 500,10 to 50,1 to 10,,
O=C(c1cn(-c2nc3c(Nc4c(F)ccc(NS(=O)(=O)c5cccc(Cl)c5Cl)c4F)ncnc3s2)c2ccccc12)N1C2CCC1CC(O)C2 (centres unmarked) [Example 86],,< 10,1 to 10,< 500,4
COc1ccc(S(=O)(=O)Nc2ccc(F)c(Nc3ncnc4sc(-n5cnc6c(C(C)(C)C#N)cccc65)nc34)c2F)c(C)c1Cl [Example 117],,10 to 50,> 10,500 to 1000,−15
Cc1c(F)cccc1S(=O)(=O)Nc1ccc(F)c(Nc2ncnc3sc(-n4nc(C(=O)N(C)CCN(C)C)c5ccccc54)nc23)c1F [Example 27],,10 to 50,1 to 10,500 to 1000,−3
O=C(c1cn(-c2nc3c(Nc4c(F)ccc(NS(=O)(=O)c5cccc(Cl)c5Cl)c4F)ncnc3s2)c2ccc(F)cc12)N1C2CCC1COC2 [Example 102],,< 10,1 to 10,< 500,0
O=S(=O)(Nc1ccc(F)c(Nc2ncnc3sc(-n4cnc5c(-c6cccnc6)cccc54)nc23)c1F)c1cccc(Cl)c1Cl [Example 9],,< 10,1 to 10,500 to 1000,−9
